Tested on: SEM cells
Assay: cell viability relative to DMSO control; higher = less cytotoxic
Conditions: 48 h
In short: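 Before seeding, each leukemia line was adapted for at least four passages in each medium. NOMO1 or SEM cells (500 cells/well) and P12-Ichikawa cells (1000 cells/well) went into 1536-well plates at 5 μl, then received library compounds in DMSO by pin dosing across 11 threefold concentrations, 47 μM to 0.79 nM. Readout was CellTiter-Glo One luminescence after 48 h at 37°C, and viability is given as a per-plate percentage of DMSO wells, with cell-free wells as background.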

[1] = HPLM + 10% dialyzed FBS, 0.000781 µM
[2] = HPLM + 10% dialyzed FBS, 0.00234 µM
[3] = HPLM + 10% dialyzed FBS, 0.00702 µM
[4] = HPLM + 10% dialyzed FBS, 0.0211 µM
[5] = HPLM + 10% dialyzed FBS, 0.0632 µM
[6] = HPLM + 10% dialyzed FBS, 0.19 µM
[7] = HPLM + 10% dialyzed FBS, 0.569 µM
[8] = HPLM + 10% dialyzed FBS, 1.71 µM
[9] = HPLM + 10% dialyzed FBS, 5.12 µM
[10] = HPLM + 10% dialyzed FBS, 15.4 µM
[11] = HPLM + 10% dialyzed FBS, 46.1 µM
[12] = RPMI 5 mM glucose + 10% FBS, 0.000781 µM
[13] = RPMI 5 mM glucose + 10% FBS, 0.00234 µM
[14] = RPMI 5 mM glucose + 10% FBS, 0.00702 µM
[15] = RPMI 5 mM glucose + 10% FBS, 0.0211 µM
[16] = RPMI 5 mM glucose + 10% FBS, 0.0632 µM
[17] = RPMI 5 mM glucose + 10% FBS, 0.19 µM
[18] = RPMI 5 mM glucose + 10% FBS, 0.569 µM
[19] = RPMI 5 mM glucose + 10% FBS, 1.71 µM
[20] = RPMI 5 mM glucose + 10% FBS, 5.12 µM
[21] = RPMI 5 mM glucose + 10% FBS, 15.4 µM
[22] = RPMI 5 mM glucose + 10% FBS, 46.1 µM
[23] = RPMI 5 mM glucose + 10% dialyzed FBS, 0.000781 µM
[24] = RPMI 5 mM glucose + 10% dialyzed FBS, 0.00234 µM
[25] = RPMI 5 mM glucose + 10% dialyzed FBS, 0.00702 µM
[26] = RPMI 5 mM glucose + 10% dialyzed FBS, 0.0211 µM
[27] = RPMI 5 mM glucose + 10% dialyzed FBS, 0.0632 µM
[28] = RPMI 5 mM glucose + 10% dialyzed FBS, 0.19 µM
[29] = RPMI 5 mM glucose + 10% dialyzed FBS, 0.569 µM
[30] = RPMI 5 mM glucose + 10% dialyzed FBS, 1.71 µM
[31] = RPMI 5 mM glucose + 10% dialyzed FBS, 5.12 µM
[32] = RPMI 5 mM glucose + 10% dialyzed FBS, 15.4 µM
[33] = RPMI 5 mM glucose + 10% dialyzed FBS, 46.1 µM

## Cc1onc(-c2ccccc2)c1C(=O)N[C@@H]1C(=O)N2[C@@H]1SC(C)(C)[C@@H]2C(=O)[O-].[Na+]
[1]
  cell viability: 85.9%
[2]
  cell viability: 75.7%
[3]
  cell viability: 87.2%
[4]
  cell viability: 84%
[5]
  cell viability: 86.5%
[6]
  cell viability: 75.3%
[7]
  cell viability: 89.6%
[8]
  cell viability: 93.4%
[9]
  cell viability: 85.2%
[10]
  cell viability: 82.1%
[11]
  cell viability: 80.2%
[12]
  cell viability: 109%
[13]
  cell viability: 94.2%
[14]
  cell viability: 105%
[15]
  cell viability: 114%
[16]
  cell viability: 108%
[17]
  cell viability: 109%
[18]
  cell viability: 114%
[19]
  cell viability: 86.4%
[20]
  cell viability: 102%
[21]
  cell viability: 132%
[22]
  cell viability: 103%
[23]
  cell viability: 115%
[24]
  cell viability: 104%
[25]
  cell viability: 111%
[26]
  cell viability: 113%
[27]
  cell viability: 133%
[28]
  cell viability: 112%
[29]
  cell viability: 118%
[30]
  cell viability: 107%
[31]
  cell viability: 111%
[32]
  cell viability: 108%
[33]
  cell viability: 100%

## CC(O)C1C2C(C)\C(=C(/N2C1=O)C(O)=O)SC3CNC(C3)C(=O)N(C)C (stereo unspecified)
[1]
  cell viability: 79.6%
[2]
  cell viability: 64.9%
[3]
  cell viability: 84%
[4]
  cell viability: 88.8%
[5]
  cell viability: 90.4%
[6]
  cell viability: 81.4%
[7]
  cell viability: 86.7%
[8]
  cell viability: 82.3%
[9]
  cell viability: 90.7%
[10]
  cell viability: 77.9%
[11]
  cell viability: 78.5%
[12]
  cell viability: 80.9%
[13]
  cell viability: 77.2%
[14]
  cell viability: 85.2%
[15]
  cell viability: 90.7%
[16]
  cell viability: 84.1%
[17]
  cell viability: 75.7%
[18]
  cell viability: 92.2%
[19]
  cell viability: 85.4%
[20]
  cell viability: 90.7%
[21]
  cell viability: 83.9%
[22]
  cell viability: 90.6%
[23]
  cell viability: 86%
[24]
  cell viability: 68.8%
[25]
  cell viability: 98.7%
[26]
  cell viability: 92.7%
[27]
  cell viability: 104%
[28]
  cell viability: 107%
[29]
  cell viability: 90.8%
[30]
  cell viability: 90.2%
[31]
  cell viability: 104%
[32]
  cell viability: 88.3%
[33]
  cell viability: 73.9%

## CC/1=C(\O)C(=O)\C=C2/C1=C/C=C3\[C@@]2(C)CC[C@@]4(C)[C@@H]5C[C@@](C)(CC[C@]5(C)CC[C@]34C)C(O)=O
[1]
  cell viability: 109%
[2]
  cell viability: 102%
[3]
  cell viability: 102%
[4]
  cell viability: 119%
[5]
  cell viability: 113%
[6]
  cell viability: 109%
[7]
  cell viability: 118%
[8]
  cell viability: 97.6%
[9]
  cell viability: 10.9%
[10]
  cell viability: 8.14%
[11]
  cell viability: 5.78%
[12]
  cell viability: 126%
[13]
  cell viability: 97.9%
[14]
  cell viability: 102%
[15]
  cell viability: 117%
[16]
  cell viability: 118%
[17]
  cell viability: 111%
[18]
  cell viability: 110%
[19]
  cell viability: 85.7%
[20]
  cell viability: 8.55%
[21]
  cell viability: 7.7%
[22]
  cell viability: 6.91%
[23]
  cell viability: 97.7%
[24]
  cell viability: 91.4%
[25]
  cell viability: 103%
[26]
  cell viability: 79.8%
[27]
  cell viability: 112%
[28]
  cell viability: 89%
[29]
  cell viability: 108%
[30]
  cell viability: 61.1%
[31]
  cell viability: 8.59%
[32]
  cell viability: 9.09%
[33]
  cell viability: 6.92%

## Cc1nc(Nc2n[nH]c3c2CN(C(=O)N[C@H](CN(C)C)c2ccccc2)C3(C)C)c2sccc2n1
[1]
  cell viability: 72.2%
[2]
  cell viability: 70.6%
[3]
  cell viability: 51.6%
[4]
  cell viability: 66.4%
[5]
  cell viability: 52.6%
[6]
  cell viability: 48.5%
[7]
  cell viability: 36.6%
[8]
  cell viability: 23.8%
[9]
  cell viability: 15.7%
[10]
  cell viability: 2.46%
[11]
  cell viability: 4.3%
[12]
  cell viability: 91.2%
[13]
  cell viability: 85.9%
[14]
  cell viability: 62.8%
[15]
  cell viability: 79.1%
[16]
  cell viability: 60.3%
[17]
  cell viability: 47%
[18]
  cell viability: 46%
[19]
  cell viability: 25.7%
[20]
  cell viability: 15.2%
[21]
  cell viability: 1.75%
[22]
  cell viability: 3.09%
[23]
  cell viability: 82.2%
[24]
  cell viability: 73%
[25]
  cell viability: 70.1%
[26]
  cell viability: 82.1%
[27]
  cell viability: 64.2%
[28]
  cell viability: 55.1%
[29]
  cell viability: 50%
[30]
  cell viability: 30.4%
[31]
  cell viability: 21.4%
[32]
  cell viability: 2.4%
[33]
  cell viability: 3.71%

## CN(C)C1=C(Br)C=C(C=C1)C\2NC3=C(\C4=C2C(=O)CC(C)(C)C4)C5=CC=CC=C5C=C3 (stereo unspecified)
[1]
  cell viability: 113%
[2]
  cell viability: 119%
[3]
  cell viability: 125%
[4]
  cell viability: 130%
[5]
  cell viability: 131%
[6]
  cell viability: 131%
[7]
  cell viability: 113%
[8]
  cell viability: 120%
[9]
  cell viability: 128%
[10]
  cell viability: 120%
[11]
  cell viability: 97.8%
[12]
  cell viability: 105%
[13]
  cell viability: 115%
[14]
  cell viability: 137%
[15]
  cell viability: 121%
[16]
  cell viability: 132%
[17]
  cell viability: 123%
[18]
  cell viability: 107%
[19]
  cell viability: 131%
[20]
  cell viability: 116%
[21]
  cell viability: 109%
[22]
  cell viability: 100%
[23]
  cell viability: 93.1%
[24]
  cell viability: 112%
[25]
  cell viability: 122%
[26]
  cell viability: 128%
[27]
  cell viability: 127%
[28]
  cell viability: 127%
[29]
  cell viability: 93.1%
[30]
  cell viability: 114%
[31]
  cell viability: 126%
[32]
  cell viability: 118%
[33]
  cell viability: 85.4%

## C[C@](N)(Cc1ccc(O)c(O)c1)C(=O)O
[1]
  cell viability: 83.9%
[2]
  cell viability: 85.7%
[3]
  cell viability: 94.4%
[4]
  cell viability: 86.3%
[5]
  cell viability: 102%
[6]
  cell viability: 92.5%
[7]
  cell viability: 84.1%
[8]
  cell viability: 81.7%
[9]
  cell viability: 83%
[10]
  cell viability: 74.8%
[11]
  cell viability: 6.26%
[12]
  cell viability: 94.7%
[13]
  cell viability: 106%
[14]
  cell viability: 100%
[15]
  cell viability: 111%
[16]
  cell viability: 103%
[17]
  cell viability: 81.6%
[18]
  cell viability: 69.2%
[19]
  cell viability: 93.5%
[20]
  cell viability: 86.2%
[21]
  cell viability: 72.9%
[22]
  cell viability: 3.7%
[23]
  cell viability: 103%
[24]
  cell viability: 93.7%
[25]
  cell viability: 95.9%
[26]
  cell viability: 111%
[27]
  cell viability: 97.8%
[28]
  cell viability: 91.1%
[29]
  cell viability: 98.5%
[30]
  cell viability: 96.1%
[31]
  cell viability: 88.2%
[32]
  cell viability: 77.4%
[33]
  cell viability: 4.47%

## COc1cc(CNC(=O)CCCC/C=C/C(C)C)ccc1O
[1]
  cell viability: 88.8%
[2]
  cell viability: 92.6%
[3]
  cell viability: 104%
[4]
  cell viability: 99%
[5]
  cell viability: 101%
[6]
  cell viability: 96.6%
[7]
  cell viability: 79.7%
[8]
  cell viability: 36.7%
[9]
  cell viability: 32.9%
[10]
  cell viability: 29.7%
[11]
  cell viability: 18.6%
[12]
  cell viability: 110%
[13]
  cell viability: 110%
[14]
  cell viability: 121%
[15]
  cell viability: 123%
[16]
  cell viability: 107%
[17]
  cell viability: 111%
[18]
  cell viability: 56.7%
[19]
  cell viability: 19.3%
[20]
  cell viability: 21.4%
[21]
  cell viability: 15.9%
[22]
  cell viability: 12.5%
[23]
  cell viability: 94.3%
[24]
  cell viability: 93.2%
[25]
  cell viability: 98.7%
[26]
  cell viability: 101%
[27]
  cell viability: 94.6%
[28]
  cell viability: 93.8%
[29]
  cell viability: 86.6%
[30]
  cell viability: 23.6%
[31]
  cell viability: 27.2%
[32]
  cell viability: 19%
[33]
  cell viability: 15.4%

Source: the supplement of paper PMC11451515
